Measurements as given in PubChem BioAssay AID330 (DTP/NCI, 2004).
“And” between values parts separate entries of the source, which are not always exact repeats. Identical values can stand only once. Toxic doses and inconclusive results are not listed. Rule for the calls: active = survival T/C of 150% or more; inactive = T/C below 125% in these data.

System: P388 leukemia ip, CD2F1 mice, survival T/C
Assay: NCI In Vivo Anticancer Drug Screen. Data for tumor model P388 Leukemia (intraperitoneal) in CD2F1 (CDF1) mice
Details: endpoint: median survival time, higher = longer survival
Method in brief: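 Mice carrying the transplanted tumor received test compound or vehicle. Survival was recorded in each group, and the value is the treated-group measurement divided by that of the vehicle-treated control group.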

[1] = dose: 50.0 mg/kg/injection, schedule: Q01DX005 (ip), vehicle: Klucel (hydroxypropylcellulose) (HPC)
[2] = dose: 100.0 mg/kg/injection, schedule: Q01DX005 (ip), vehicle: Klucel (hydroxypropylcellulose) (HPC)
[3] = dose: 50.0 mg/kg/injection, schedule: Q01DX009 (ip), vehicle: saline with Tween-80
[4] = dose: 100.0 mg/kg/injection, schedule: Q01DX009 (ip), vehicle: saline with Tween-80
[5] = dose: 200.0 mg/kg/injection, schedule: Q01DX009 (ip), vehicle: saline with Tween-80
[6] = dose: 6.25 mg/kg/injection, schedule: Q01DX009 (ip), vehicle: saline with Tween-80
[7] = dose: 100.0 mg/kg/injection, schedule: Q01DX009 (ip), vehicle: saline
[8] = dose: 200.0 mg/kg/injection, schedule: Q01DX009 (ip), vehicle: saline
[9] = dose: 60.0 mg/kg/injection, schedule: Q01DX005 (ip), vehicle: saline with Tween-80
[10] = dose: 120.0 mg/kg/injection, schedule: Q01DX005 (ip), vehicle: saline with Tween-80
[11] = dose: 240.0 mg/kg/injection, schedule: Q01DX005 (ip), vehicle: saline with Tween-80
[12] = dose: 50.0 mg/kg/injection, schedule: Q01DX005 (ip), vehicle: saline with Tween-80
[13] = dose: 100.0 mg/kg/injection, schedule: Q01DX005 (ip), vehicle: saline with Tween-80
[14] = dose: 200.0 mg/kg/injection, schedule: Q01DX005 (ip), vehicle: saline with Tween-80

Measured: T/C

CC1CCCC(C)N1C1=NCCO1 (centres undefined)
inactive: dose: 5.0 mg/kg/injection, schedule: Q04DX003 (ip), vehicle: saline 95 % of control | dose: 10.0 mg/kg/injection, schedule: Q04DX003 (ip), vehicle: saline 100 % of control | dose: 20.0 mg/kg/injection, schedule: Q04DX003 (ip), vehicle: saline 95 % of control

CNC(=S)N/N=C/Cn1cc([N+](=O)[O-])c(=O)[nH]c1=O
inactive: [1] 98 % of control | [2] 100 % of control

O=C1CCC(=O)N1CNCCc1cc(Cl)cc(Cl)c1O
inactive: [3] 102 % of control | [4] 103 % of control | [5] 94 % of control

Oc1c(Cl)cc(Cl)cc1CN1CCOCC1
inactive: dose: 50.0 mg/kg/injection, schedule: Q01DX009 (ip), vehicle: suspension in saline 89 % of control | dose: 100.0 mg/kg/injection, schedule: Q01DX009 (ip), vehicle: suspension in saline 87 % of control | dose: 200.0 mg/kg/injection, schedule: Q01DX009 (ip), vehicle: suspension in saline 98 % of control | dose: 400.0 mg/kg/injection, schedule: Q01DX009 (ip), vehicle: suspension in saline 109 % of control

CCCN(CCC)c1ccc(N=Nc2ccccc2C(=O)O)cc1
inactive: [3] 102 % of control | [4] 105 % of control | [5] 112 % of control | dose: 400.0 mg/kg/injection, schedule: Q01DX009 (ip), vehicle: saline with Tween-80 110 % of control

CC(C)CCc1cc(O)c(CCC(C)C)cc1O
inactive: [6] 88 % of control | dose: 25.0 mg/kg/injection, schedule: Q01DX009 (ip), vehicle: saline with Tween-80 109 % of control | [3] 108 % of control | [4] 114 % of control

O=C1OCCN1/N=C/C=N/N1CCOC1=O
inactive: dose: 1.56 mg/kg/injection, schedule: Q01DX009 (ip), vehicle: saline with Tween-80 95 % of control | dose: 3.12 mg/kg/injection, schedule: Q01DX009 (ip), vehicle: saline with Tween-80 95 % of control | [6] 105 % of control

COCCCNS(=O)(=O)c1ncnc2nc[nH]c12
inactive: [7] 104 % of control | dose: 100.0 mg/kg/injection, schedule: Q04DX003 (ip), vehicle: saline with Tween-80 108 % of control | [8] 100 % of control | dose: 400.0 mg/kg/injection, schedule: Q01DX009 (ip), vehicle: saline 86 % of control | dose: 400.0 mg/kg/injection, schedule: Q04DX003 (ip), vehicle: saline with Tween-80 108 % of control

c1ccc(Cc2[nH]nc(-c3n[nH]c(Cc4ccccc4)c3-c3ccccc3)c2-c2ccccc2)cc1
inactive: [9] 101 % of control | [10] 103 % of control | [11] 102 % of control

CC(C)(C)C(C)(C)c1ccc(OCCSCCOc2ccc(C(C)(C)C(C)(C)C)cc2)cc1
inactive: [3] 92 % of control | [4] 90 % of control | [5] 87 % of control

Cc1onc(-c2ccccc2)c1C(C)(O)c1ccccc1 (centres undefined)
inactive: dose: 100.0 mg/kg/injection, schedule: Q01DX001 (ip), vehicle: Klucel (hydroxypropylcellulose) (HPC) 90 % of control | dose: 200.0 mg/kg/injection, schedule: Q01DX001 (ip), vehicle: Klucel (hydroxypropylcellulose) (HPC) 93 % of control | dose: 400.0 mg/kg/injection, schedule: Q01DX001 (ip), vehicle: Klucel (hydroxypropylcellulose) (HPC) 88 % of control

Nc1ccc(C(=O)Nc2ccc(C(=O)Nc3ccc(/C=C/c4ccc(NC(=O)c5ccc(N)cc5)cc4S(=O)(=O)O)c(S(=O)(=O)O)c3)cc2)cc1
inactive: dose: 50.0 mg/kg/injection, schedule: Q01DX009 (ip), vehicle: saline 99 % of control | [7] 113 % of control | [8] 100 % of control

COc1ccc(C2c3cc4c(cc3OC3(O)CCCC(=O)C23)OCO4)cc1 (centres undefined)
inactive: [9] 100 % of control | [10] 100 % of control | [11] 93 % of control

CCOC(=O)C(C)NC(=O)OCc1ccccc1 (centres undefined)
inactive: [9] 101 % of control | [10] 112 % of control | [11] 116 % of control

CCC1(C)NN=C2C(=CC=C3NNC(C)(CC)N32)n2cccc21 (centres undefined)
inactive: [12] 102 % of control | [13] 110 % of control | [14] 119 % of control

COC1=C(OC)C(=O)C=CC1=O
inactive: dose: 0.78 mg/kg/injection, schedule: Q01DX009 (ip), vehicle: saline 101 % of control | dose: 1.56 mg/kg/injection, schedule: Q01DX009 (ip), vehicle: saline 94 % of control | dose: 3.13 mg/kg/injection, schedule: Q01DX009 (ip), vehicle: saline 96 % of control | dose: 6.25 mg/kg/injection, schedule: Q01DX009 (ip), vehicle: saline 102 % of control

CCCCCCCC/C=C\CCCCCCCC(=O)O
inactive: dose: 50.0 mg/kg/injection, schedule: Q04DX003 (ip), vehicle: Klucel (hydroxypropylcellulose) (HPC) 104 % of control | dose: 100.0 mg/kg/injection, schedule: Q04DX003 (ip), vehicle: Klucel (hydroxypropylcellulose) (HPC) 103 % of control and 97 % of control | dose: 200.0 mg/kg/injection, schedule: Q04DX003 (ip), vehicle: Klucel (hydroxypropylcellulose) (HPC) 102 % of control and 93 % of control | dose: 400.0 mg/kg/injection, schedule: Q04DX003 (ip), vehicle: Klucel (hydroxypropylcellulose) (HPC) 92 % of control

COc1ccc(C(C)c2cc3c(cc2OC(C)=O)OCO3)cc1 (centres undefined)
inactive: [12] 100 % of control | [13] 87 % of control | [14] 93 % of control

Clc1ccc2nc(Cl)[nH]c2c1
inactive: [1] 102 % of control | [2] 100 % of control | dose: 200.0 mg/kg/injection, schedule: Q01DX005 (ip), vehicle: Klucel (hydroxypropylcellulose) (HPC) 99 % of control

CCCNc1nc2c(s1)c1c(O)c3c(O)c(C)c4c(c32)C(=O)C(C)(O/C=C\C(OC)C(C)C(OC(C)=O)C(C)C(O)C(C)C(O)C(C)/C=C/C=C(/C)C(=O)N1)O4 (centres undefined)
inactive: dose: 25.0 mg/kg/injection, schedule: Q01DX009 (ip), vehicle: Klucel (hydroxypropylcellulose) (HPC) 92 % of control | dose: 50.0 mg/kg/injection, schedule: Q01DX009 (ip), vehicle: Klucel (hydroxypropylcellulose) (HPC) 107 % of control | dose: 100.0 mg/kg/injection, schedule: Q01DX009 (ip), vehicle: Klucel (hydroxypropylcellulose) (HPC) 99 % of control | dose: 200.0 mg/kg/injection, schedule: Q01DX009 (ip), vehicle: Klucel (hydroxypropylcellulose) (HPC) 100 % of control

NC(=O)Nc1cc2[nH]c(=O)oc2cc1Cl
inactive: dose: 12.5 mg/kg/injection, schedule: Q01DX005 (ip), vehicle: Klucel (hydroxypropylcellulose) (HPC) 100 % of control | dose: 25.0 mg/kg/injection, schedule: Q01DX005 (ip), vehicle: Klucel (hydroxypropylcellulose) (HPC) 102 % of control | [1] 88 % of control | [2] 92 % of control

COc1cc2oc(=O)cc(C)c2cc1N=C=S
inactive: dose: 50.0 mg/kg/injection, schedule: Q04DX003 (ip), vehicle: suspension in saline 100 % of control | dose: 100.0 mg/kg/injection, schedule: Q04DX003 (ip), vehicle: suspension in saline 100 % of control | dose: 200.0 mg/kg/injection, schedule: Q04DX003 (ip), vehicle: suspension in saline 92 % of control

NC(=O)CCCNC(=O)CCC[c-]1[c-][c-][c-][c-]1.[Fe].[c-]1[c-][c-][cH-][c-]1
inactive: dose: 3.13 mg/kg/injection, schedule: Q01DX009 (ip), vehicle: other 102 % of control | dose: 6.25 mg/kg/injection, schedule: Q01DX009 (ip), vehicle: other 102 % of control | dose: 12.5 mg/kg/injection, schedule: Q01DX009 (ip), vehicle: other 99 % of control and 96 % of control | dose: 25.0 mg/kg/injection, schedule: Q01DX009 (ip), vehicle: other 123 % of control | dose: 50.0 mg/kg/injection, schedule: Q01DX009 (ip), vehicle: other 111 % of control and 118 % of control
